According to patent US10005767B2, “Compositions and methods for inhibition of the JAK pathway” (Rigel Pharmaceuticals, Inc., priority 2009, dated 2018):
Structures can show the parent of a compound that is named as a salt. Where two headings read alike, the source gives them in different places.

Test system: human primary T-cells, IL-2 stimulated proliferation (JAK-1 and JAK-3 dependent; reported as JAK3 activity)
Assay: Human primary T-cell proliferation stimulated by IL-2 (Example 3)
Assay type: cell-based
Conditions: tested under conditions described in Example 3 (IL-2 stimulated human primary T-cell proliferation), read-out: ability to inhibit JAK3 activity, IC50 range (Table V)
How it was run: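 Peripheral-blood human T-cells pre-activated via TCR/CD28, IL-2-starved overnight, then cultured 72 h at 37 °C with compound in Yssel's medium containing IL-2 (80 U/mL in cell suspension). Proliferation read as viable-cell ATP by CellTiter-Glo luminescence; reduction versus control taken as JAK pathway inhibition.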

Cc1cnc(Nc2ccc(C(C)C)cc2)nc1Nc1ccc2oc(=O)[nH]c2c1 [Compound I-419, 5-(2-(4-isopropylphenylamino)-5-methylpyrimidin-4-ylamino)benzo[d]oxazol-2(3H)-one]
IC50 (Homo sapiens, T-cell): < 0.5 µM

Cc1cnc(Nc2ccc(N(C)[C@H]3CCCN(Cc4ccccc4)C3)nc2)nc1Nc1ccc2oc(=O)[nH]c2c1 [II-95, (S)-5-(2-(6-((1-benzylpiperidin-3-yl)(methyl)amino)pyridin-3-ylamino)-5-methylpyrimidin-4-ylamino)benzo[d]oxazol-2(3H)-one]
IC50 (Homo sapiens, T-cell): < 0.5 µM

Cn1c(=O)oc2cc(Nc3nc(Nc4cccc(S(N)(=O)=O)c4)ncc3F)ccc21 [Compound I-57, N2-((3-aminosulfonyl)phenyl)-N4-(3-methyl-2-oxo-2,3-dihydrobenzo[d]oxazol-6-yl)-5-fluoropyrimidine-2,4-diamine]
IC50: < 0.5 µM

COc1cc(Nc2ncc(C)c(Nc3ccc4oc(=O)[nH]c4c3)n2)ccc1C(=O)Nc1ccccc1 [Compound I-221, 2-methoxy-4-(5-methyl-4-(2-oxo-2,3-dihydrobenzo[d]oxazol-5-ylamino)pyrimidin-2-ylamino)-N-phenylbenzamide]
IC50 (Homo sapiens, T-cell): < 0.5 µM

Cc1ccc(Cl)c(Nc2ncc(C)c(Nc3ccc4oc(=O)[nH]c4c3)n2)c1 [Compound I-521, 5-(2-(2-chloro-5-methylphenylamino)-5-methylpyrimidin-4-ylamino)benzo[d]oxazol-2(3H)-one]
IC50 (Homo sapiens, T-cell): < 0.5 µM

Cc1cnc(Nc2cccc(S(C)(=O)=O)c2)nc1Nc1ccc2[nH]c(=O)[nH]c2c1 [Compound I-22, N4-(benzimidazolin-2-on-5-yl)-N2-(3-methylsulfonyl)phenyl-5-methylpyrimidine-2,4-diamine]
IC50: < 0.5 µM

COc1c(C)cc(Nc2ncc(C)c(Nc3ccc4oc(=O)[nH]c4c3)n2)cc1C [Compound I-369, N2-(3,5-dimethyl-4-methoxy)phenyl-5-methyl-N4-(2-oxo-2,3-dihydro-1,3-benzoxazol-5-yl)-2,4-pyrimidinediamine]
IC50: < 0.5 µM

Cc1cnc(Nc2ccc3c(c2)CCCC(=O)N3C)nc1Nc1ccc2oc(=O)[nH]c2c1 [IV-34, 5-(5-methyl-2-(1-methyl-2-oxo-2,3,4,5-tetrahydro-1H-benzo[b]azepin-7-ylamino)pyrimidin-4-ylamino)benzo[d]oxazol-2(3H)-one]
IC50 (Homo sapiens, T-cell): < 0.5 µM

Cc1cnc(Nc2ccc(C(N)=O)cc2)nc1Nc1ccc2oc(=O)[nH]c2c1 [Compound I-3, N4-(benzo[d]oxazol-2(3H)-on-5-yl)-N2-(4-aminocarbonylphenyl)-5-methylpyrimidine-2,4-diamine]
IC50 (Homo sapiens, T-cell): < 0.5 µM

Cc1cnc(Nc2ccc(C(C)NCc3ccccc3)cc2)nc1Nc1ccc2oc(=O)[nH]c2c1 (stereo not shown) [Compound I-206, 5-(2-(4-(1-(benzylamino)ethyl)phenylamino)-5-methylpyrimidin-4-ylamino)benzo[d]oxazol-2(3H)-one]
IC50 (Homo sapiens, T-cell): < 0.5 µM

Cc1cnc(Nc2ccc(N3CCO[C@H](C)C3)nc2)nc1Nc1ccc2oc(=O)[nH]c2c1 [II-135, 5-methyl-N2-[2-(2R-methylmorpholino)pyridin-5-yl]-N4-(2-oxo-2,3-dihydro-1,3-benzoxazol-5-yl)-2,4-pyrimidinediamine]
IC50 (Homo sapiens, T-cell): < 0.5 µM

Cc1cnc(Nc2cccc(S(N)(=O)=O)c2)nc1Nc1ccc2[nH]c(=O)oc2c1 [Compound I-98, N2-((3-aminosulfonyl)phenyl)-N4-(2-oxo-2,3-dihydrobenzo[d]oxazol-6-yl)-5-methylpyrimidine-2,4-diamine]
IC50: < 0.5 µM

Cc1cnc(Nc2ccc3[nH]c(=O)[nH]c3c2)nc1Nc1ccc2oc(=O)[nH]c2c1 [IV-29, 5-(5-methyl-2-(2-oxo-2,3-dihydro-1H-benzo[d]imidazol-5-ylamino)pyrimidin-4-ylamino)benzo[d]oxazol-2(3H)-one]
IC50 (Homo sapiens, T-cell): < 0.5 µM

Cc1cnc(Nc2ccc(NS(C)(=O)=O)cc2)nc1Nc1ccc2c(c1)n(C)c(=O)n2C [Compound I-38, N4-(1,3-dimethylbenzimidazolin-2-on-5-yl)-N2-((4-methylsulfonylamino)phenyl)-5-methylpyrimidine-2,4-diamine]
IC50: < 0.5 µM

Cc1cnc(Nc2cccc(NS(C)(=O)=O)c2)nc1Nc1ccc2c(c1)oc(=O)n2C [Compound I-73, N2-((3-methylsulfonylamino)phenyl)-N4-(3-methyl-2-oxo-2,3-dihydrobenzo[d]oxazol-6-yl)-5-methylpyrimidine-2,4-diamine]
IC50: < 0.5 µM

COc1cc(Nc2ncc(C)c(Nc3ccc4oc(=O)[nH]c4c3)n2)cc(C(=O)N2CCOCC2)c1 [Compound I-254, 5-(2-(3-methoxy-5-(morpholine-4-carbonyl)phenylamino)-5-methylpyrimidin-4-ylamino)benzo[d]oxazol-2(3H)-one]
IC50 (Homo sapiens, T-cell): < 0.5 µM

Cc1cnc(Nc2ccc(N3CCN(C)CC3)nc2)nc1Nc1ccc2c(c1)oc(=O)n2C [II-23, N2-(6-(4-methylpiperazin-1-yl)pyridin-3-yl)-N4-(3-methyl-2-oxo-2,3-dihydrobenzo[d]oxazol-6-yl)-5-methylpyrimidine-2,4-diamine trifluoroacetate salt]
IC50 (Homo sapiens, T-cell): < 0.5 µM

Cn1c(=O)oc2ccc(Nc3nc(Nc4ccc(NS(C)(=O)=O)cc4)ncc3F)cc21 [Compound I-80, N2-((4-methylsulfonylamino)phenyl)-N4-(3-methyl-2-oxo-2,3-dihydrobenzo[d]oxazol-5-yl)-5-fluoropyrimidine-2,4-diamine]
IC50: < 0.5 µM

COc1cc(F)cc(Nc2ncc(C)c(Nc3ccc4oc(=O)[nH]c4c3)n2)c1 [Compound I-352, N2-(3-fluoro-5-methoxy)phenyl-5-methyl-N4-(2-oxo-2,3-dihydro-1,3-benzoxazol-5-yl)-2,4-pyrimidinediamine]
IC50: < 0.5 µM

Cc1cnc(Nc2ccc(Cl)cc2)nc1Nc1ccc2oc(=O)[nH]c2c1 [Compound I-172, 5-[2-(4-Chloro-phenylamino)-5-methyl-pyrimidin-4-ylamino]-3H-benzooxazol-2-one]
IC50 (Homo sapiens, T-cell): < 0.5 µM

Cc1cnc(Nc2ccc(N3C4CCC3CC(N(C)C)C4)nc2)nc1Nc1ccc2oc(=O)[nH]c2c1 (stereo not shown) [II-137, N2-[2-(3-N,N-dimethylamino-8-azabicyclo[3.2.1]octan-8-yl)pyridin-5-yl]-5-methyl-N4-(2-oxo-2,3-dihydro-1,3-benzoxazol-5-yl)-2,4-pyrimidinediamine]
IC50: < 0.5 µM

COc1cc(Nc2ncc(C)c(Nc3ccc4oc(=O)[nH]c4c3)n2)ccc1-c1ccncc1 [Compound I-494, 5-(2-(3-methoxy-4-(pyridin-4-yl)phenylamino)-5-methylpyrimidin-4-ylamino)benzo[d]oxazol-2(3H)-one formate salt]
IC50 (Homo sapiens, T-cell): 0.5 to 5 µM

Cc1cnc(Nc2ccc(N3CCN4CCCCC4C3)nc2)nc1Nc1ccc2oc(=O)[nH]c2c1 (stereo not shown) [II-128, N2-[2-(1,4-diazabicylco[4.4.0]decan-4-yl)pyridin-5-yl]-5-methyl-N4-(2-oxo-2,3-dihydro-1,3-benzoxazol-5-yl)-2,4-pyrimidinediamine]
IC50: < 0.5 µM

Cc1cnc(Nc2cc(Cl)cc(Br)c2)nc1Nc1ccc2oc(=O)[nH]c2c1 [Compound I-185, 5-[2-(3-Bromo-5-chloro-phenylamino)-5-methyl-pyrimidin-4-ylamino]-3H-benzooxazol-2-one]
IC50 (Homo sapiens, T-cell): > 10 µM

Cc1cc(C)cc(Nc2ncc(C)c(Nc3cc(C)c4oc(=O)[nH]c4c3)n2)c1 [Compound I-474, 5-(2-(3,5-dimethylphenylamino)-5-methylpyrimidin-4-ylamino)-7-methylbenzo[d]oxazol-2(3H)-one]
IC50 (Homo sapiens, T-cell): < 0.5 µM

COc1cc(Nc2ncc(C)c(Nc3ccc4oc(=O)[nH]c4c3)n2)cc(C(C)NC(C)C)c1 (stereo not shown) [Compound I-231, 5-(2-(3-(1-(isopropylamino)ethyl)-5-methoxyphenylamino)-5-methylpyrimidin-4-ylamino)benzo[d]oxazol-2(3H)-one]
IC50 (Homo sapiens, T-cell): < 0.5 µM

Cc1cnc(Nc2cnc(N3CCN4CCC[C@H]4C3)c(F)c2)nc1Nc1ccc2oc(=O)[nH]c2c1 [II-112, N4-(benzo[d]oxazolin-2(3H)-one-5-yl)-N2-{2-[(8S)-1,4-diazabicyclo[4.3.0]nonane-1-yl]-3-fluoropyridine-5-yl}-5-methyl-2,4-pyrimidinediamine]
IC50: < 0.5 µM

Cn1c(=O)oc2ccc(Nc3nc(Nc4ccc(S(N)(=O)=O)cc4)ncc3F)cc21 [Compound I-76, N2-((4-aminosulfonyl)phenyl)-N4-(3-methyl-2-oxo-2,3-dihydrobenzo[d]oxazol-5-yl)-5-fluoropyrimidine-2,4-diamine]
IC50: 0.5 to 5 µM

COc1ccc(Nc2ncc(C)c(Nc3ccc4oc(=O)[nH]c4c3)n2)cc1C(F)F [Compound I-271, 5-(2-(3-(difluoromethyl)-4-methoxyphenylamino)-5-methylpyrimidin-4-ylamino)benzo[d]oxazol-2(3H)-one]
IC50 (Homo sapiens, T-cell): < 0.5 µM

Cc1cnc(Nc2ccc(S(N)(=O)=O)cc2)nc1Nc1ccc2[nH]c(=O)oc2c1 [Compound I-99, N2-((4-aminosulfonyl)phenyl)-N4-(2-oxo-2,3-dihydrobenzo[d]oxazol-6-yl)-5-methylpyrimidine-2,4-diamine]
IC50: < 0.5 µM

Cc1cnc(Nc2ccc(N3CCC4(CCN(C)C4)C3)nc2)nc1Nc1ccc2oc(=O)[nH]c2c1 (stereo not shown) [II-133, 5-methyl-N2-[2-(7-methyl-2,7-diazaspiro[4.4]nonan-2-yl)pyridin-5-yl]-N4-(2-oxo-2,3-dihydro-1,3-benzoxazol-5-yl)-2,4-pyrimidinediamine]
IC50 (Homo sapiens, T-cell): < 0.5 µM

Cc1cnc(Nc2ccc(Br)cc2)nc1Nc1ccc2oc(=O)[nH]c2c1 [Compound I-288, N2-(4-bromo)phenyl-5-methyl-N4-(2-oxo-2,3-dihydro-1,3-benzoxazol-5-yl)-2,4-pyrimidinediamine]
IC50: < 0.5 µM

Cc1ccc(Nc2ncc(C)c(Nc3ccc4oc(=O)[nH]c4c3)n2)cc1S(=O)(=O)NC(C)(C)C [Compound I-113, N4-(benzoxazolin-2-on-5-yl)-N2-[4-methyl-3-N-(t-butyl)aminosulfonylphenyl]-5-methylpyrimidine-2,4-diamine]
IC50: < 0.5 µM

NS(=O)(=O)c1ccc(Nc2ncc(F)c(Nc3ccc4oc(=O)[nH]c4c3)n2)cc1 [Compound I-19]
IC50: < 0.5 µM
